According to PubChem BioAssay AID1963831 (Molecular Pharmacology Branch, DTP, NCI, 2024):

Tested on: 889142-216-R-J1-PDC complex spheroid viability
Assay: Anticancer human tumor 889142-216-R-J1-PDC patient-derived bladder carcinoma cell line growth inhibition [POLQ]
Settings: for IC50: curve of first compound; for viability, T/C: stronger effect = lower value
Outline: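 Growth inhibition in 3D: complex spheroids (tumor PDC, HUVEC, MSC) treated with POLQ inhibitor combinations; where Cmax unknown, highest tested concentration 10 microM, except SN-38 at 1 microM.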

[1] = second compound 0.0316 µM, first compound 0.0316 µM
[2] = second compound 0.0316 µM, first compound 0.1 µM
[3] = second compound 0.0316 µM, first compound 0.316 µM
[4] = second compound 0.0316 µM, first compound 1 µM
[5] = second compound 0.0316 µM, first compound 3.16 µM
[6] = second compound 0.0316 µM, first compound 10 µM
[7] = second compound 0.1 µM, first compound 0.0316 µM
[8] = second compound 0.1 µM, first compound 0.1 µM
[9] = second compound 0.1 µM, first compound 0.316 µM
[10] = second compound 0.1 µM, first compound 1 µM
[11] = second compound 0.1 µM, first compound 3.16 µM
[12] = second compound 0.1 µM, first compound 10 µM
[13] = second compound 0.316 µM, first compound 0.0316 µM
[14] = second compound 0.316 µM, first compound 0.1 µM
[15] = second compound 0.316 µM, first compound 0.316 µM
[16] = second compound 0.316 µM, first compound 1 µM
[17] = second compound 0.316 µM, first compound 3.16 µM
[18] = second compound 0.316 µM, first compound 10 µM
[19] = second compound 1 µM, first compound 0.0316 µM
[20] = second compound 1 µM, first compound 0.1 µM
[21] = second compound 1 µM, first compound 0.316 µM
[22] = second compound 1 µM, first compound 1 µM
[23] = second compound 1 µM, first compound 3.16 µM
[24] = second compound 1 µM, first compound 10 µM
[25] = second compound 3.16 µM, first compound 0.0316 µM
[26] = second compound 3.16 µM, first compound 0.1 µM
[27] = second compound 3.16 µM, first compound 0.316 µM
[28] = second compound 3.16 µM, first compound 1 µM
[29] = second compound 3.16 µM, first compound 3.16 µM
[30] = second compound 3.16 µM, first compound 10 µM
[31] = second compound 10 µM, first compound 0.0316 µM
[32] = second compound 10 µM, first compound 0.1 µM
[33] = second compound 10 µM, first compound 0.316 µM
[34] = second compound 10 µM, first compound 1 µM
[35] = second compound 10 µM, first compound 3.16 µM
[36] = second compound 10 µM, first compound 10 µM
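Further: spheroids exposed to compounds for seven days.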
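Wherever viability, T/C is given: 100% = DMSO vehicle control viability.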

CC1COCCN1c1cc(-c2ccnn2C)c2ccnc(-c3ccn[nH]3)c2n1 (centres undefined) + COC1C(OC(N)=O)C(O)C(Oc2ccc3c(O)c(NC(=O)c4ccc(O)c(CC=C(C)C)c4)c(=O)oc3c2C)OC1(C)C
IC50 (second compound 0.0316 µM): 213 nM | IC50 (second compound 0.1 µM): 162 nM | IC50 (second compound 0.316 µM): 169 nM | IC50 (second compound 1 µM): 293 nM | IC50 (second compound 3.16 µM): 337 nM | IC50 (second compound 10 µM): 287 nM | viability, T/C [1]: 97.8% | viability, T/C [2]: 56.2% | viability, T/C [3]: 46.4% | viability, T/C [4]: 45% | viability, T/C [5]: 31.5% | viability, T/C [6]: 30% | viability, T/C [7]: 79% | viability, T/C [8]: 53.3% | viability, T/C [9]: 40.4% | viability, T/C [10]: 41.7% | viability, T/C [11]: 34.1% | viability, T/C [12]: 25.9% | viability, T/C [13]: 90.5% | viability, T/C [14]: 55.5% | viability, T/C [15]: 39.6% | viability, T/C [16]: 45.2% | viability, T/C [17]: 38.2% | viability, T/C [18]: 28.6% | viability, T/C [19]: 77.2% | viability, T/C [20]: 58.6% | viability, T/C [21]: 48% | viability, T/C [22]: 40.9% | viability, T/C [23]: 36.2% | viability, T/C [24]: 25.9% | viability, T/C [25]: 71.5% | viability, T/C [26]: 59.5% | viability, T/C [27]: 48.8% | viability, T/C [28]: 42.8% | viability, T/C [29]: 35.3% | viability, T/C [30]: 26.4% | viability, T/C [31]: 79% | viability, T/C [32]: 55.8% | viability, T/C [33]: 49.7% | viability, T/C [34]: 43.6% | viability, T/C [35]: 34.2% | viability, T/C [36]: 27.5%

CCCS(=O)(=O)Nc1ccc(F)c(C(=O)c2c[nH]c3ncc(-c4ccc(Cl)cc4)cc23)c1F + COC1C(OC(N)=O)C(O)C(Oc2ccc3c(O)c(NC(=O)c4ccc(O)c(CC=C(C)C)c4)c(=O)oc3c2C)OC1(C)C
IC50 (second compound 0.0316 µM): 5530 nM | IC50 (second compound 0.1 µM): 4990 nM | IC50 (second compound 0.316 µM): 7020 nM | IC50 (second compound 1 µM): 6230 nM | IC50 (second compound 3.16 µM): 5260 nM | IC50 (second compound 10 µM): 6110 nM | viability, T/C [1]: 108% | viability, T/C [2]: 108% | viability, T/C [3]: 93.5% | viability, T/C [4]: 109% | viability, T/C [5]: 62.2% | viability, T/C [6]: 36.9% | viability, T/C [7]: 126% | viability, T/C [8]: 110% | viability, T/C [9]: 98.5% | viability, T/C [10]: 91.9% | viability, T/C [11]: 55% | viability, T/C [12]: 34.9% | viability, T/C [13]: 126% | viability, T/C [14]: 98.3% | viability, T/C [15]: 92.8% | viability, T/C [16]: 99.5% | viability, T/C [17]: 69.7% | viability, T/C [18]: 39.6% | viability, T/C [19]: 101% | viability, T/C [20]: 109% | viability, T/C [21]: 104% | viability, T/C [22]: 93.9% | viability, T/C [23]: 64.5% | viability, T/C [24]: 40% | viability, T/C [25]: 116% | viability, T/C [26]: 115% | viability, T/C [27]: 98% | viability, T/C [28]: 80.4% | viability, T/C [29]: 63.9% | viability, T/C [30]: 34.6% | viability, T/C [31]: 104% | viability, T/C [32]: 105% | viability, T/C [33]: 95.5% | viability, T/C [34]: 90% | viability, T/C [35]: 68.2% | viability, T/C [36]: 36.2%
